According to patent EP1206258B1, “COMPOSITIONS CONTAINING ESTERS FOR TREATING PARASITIC INFESTATIONS OF ORGANISMS” (priority 1999, dated 2001):

What was measured:
Aspergillus nidulans [1] = experiment: growth inhibition test on SAB agar, A. nidulans; type: cell-based
Protocol: (§1) The antifungal activity of ethyl trans-cinnamate against a number of different fungi was investigated by means of in a simple growth inhibition test.
(§2) The following quantities of Ethyl trans-Cinnamate were added to Sabourand Dextrose agar (SAB); 50 ml L^-1, 4ml L^-1, 2ml L^-1, 1ml L^-1, 400 µl L^-1, 200 µl L^-1 and 40 µl L^-1. […] These were then autoclaved and poured into standard Petri dishes. […] Duplicate plates of each concentration, plus control plates containing only SAB Agar, where then separately inoculated with, four different species of fungi, these were Aspergillus nidulans, Penicillium digitatum, Rhizopus arrhizus and Fusarium culmorum. Inoculation was carried out using a single stab at the centre of each Petri dish. The plates were then incubated at 30°C for 6 days and daily measurements of mycobial growth where taken every 24 hours.

Rhizopus arrhizus = experiment: growth inhibition test on SAB agar, R. arrhizus; type: cell-based
Protocol: as §1, §2

Aspergillus nidulans [2] = experiment: growth inhibition test on SAB agar, A. nidulans; type: cell-based; settings: 50ml L-^1 and higher doses; further experiments, data not shown
Mouse = settings: Oral, VPITAR 33(5)48,74; cited from earlier work

## CCOC(=O)/C=C/c1ccccc1 [trans-cinnamic acid ethyl ester]
Aspergillus nidulans [1]; 400µl L^-1, Day 2
  Level of Radial Growth (mm) of A. nidulans: 5.5 mm
Aspergillus nidulans [1]; 400µl L^-1, Day 3
  Level of Radial Growth (mm) of A. nidulans: 11.5 mm
Aspergillus nidulans [1]; 400µl L^-1, Day 4
  Level of Radial Growth (mm) of A. nidulans: 18.0 mm
Aspergillus nidulans [1]; 400µl L^-1, Day 5
  Level of Radial Growth (mm) of A. nidulans: 24.5 mm
Aspergillus nidulans [1]; 400µl L^-1, Day 6
  Level of Radial Growth (mm) of A. nidulans: 30.0 mm
Rhizopus arrhizus; 1ml L^-1, Day 1
  Level of Radial Growth (mm) of R. arrhizus: 8.5 mm
Rhizopus arrhizus; 1ml L^-1, Day 2
  Level of Radial Growth (mm) of R. arrhizus: 45.0 mm
Rhizopus arrhizus; 1ml L^-1, Day 3
  Level of Radial Growth (mm) of R. arrhizus: 45.0 mm
Rhizopus arrhizus; 1ml L^-1, Day 4
  Level of Radial Growth (mm) of R. arrhizus: 45.0 mm
Rhizopus arrhizus; 1ml L^-1, Day 5
  Level of Radial Growth (mm) of R. arrhizus: 45.0 mm
Rhizopus arrhizus; 1ml L^-1, Day 6
  Level of Radial Growth (mm) of R. arrhizus: 45.0 mm
Rhizopus arrhizus; 2ml L^-1, Day 1
  Level of Radial Growth (mm) of R. arrhizus: 1. mm
Rhizopus arrhizus; 2ml L^-1, Day 2
  Level of Radial Growth (mm) of R. arrhizus: 45.0 mm
Rhizopus arrhizus; 2ml L^-1, Day 3
  Level of Radial Growth (mm) of R. arrhizus: 45.0 mm
Rhizopus arrhizus; 2ml L^-1, Day 4
  Level of Radial Growth (mm) of R. arrhizus: 45.0 mm
Rhizopus arrhizus; 2ml L^-1, Day 5
  Level of Radial Growth (mm) of R. arrhizus: 45.0 mm
Rhizopus arrhizus; 2ml L^-1, Day 6
  Level of Radial Growth (mm) of R. arrhizus: 45.0 mm
Rhizopus arrhizus; 4ml L^-1, Day 1
  Level of Radial Growth (mm) of R. arrhizus: 0 mm
Rhizopus arrhizus; 4ml L^-1, Day 2
  Level of Radial Growth (mm) of R. arrhizus: 23.5 mm
Rhizopus arrhizus; 4ml L^-1, Day 3
  Level of Radial Growth (mm) of R. arrhizus: 45.0 mm
Rhizopus arrhizus; 4ml L^-1, Day 4
  Level of Radial Growth (mm) of R. arrhizus: 45.0 mm
Rhizopus arrhizus; 4ml L^-1, Day 5
  Level of Radial Growth (mm) of R. arrhizus: 45.0 mm
Rhizopus arrhizus; 4ml L^-1, Day 6
  Level of Radial Growth (mm) of R. arrhizus: 45.0 mm
Rhizopus arrhizus; 40µl L^-1, Day 1
  Level of Radial Growth (mm) of R. arrhizus: 26.0 mm
Rhizopus arrhizus; 40µl L^-1, Day 2
  Level of Radial Growth (mm) of R. arrhizus: 45.0 mm
Rhizopus arrhizus; 40µl L^-1, Day 3
  Level of Radial Growth (mm) of R. arrhizus: 45.0 mm
Rhizopus arrhizus; 40µl L^-1, Day 4
  Level of Radial Growth (mm) of R. arrhizus: 45.0 mm
Rhizopus arrhizus; 40µl L^-1, Day 5
  Level of Radial Growth (mm) of R. arrhizus: 45.0 mm
Rhizopus arrhizus; 40µl L^-1, Day 6
  Level of Radial Growth (mm) of R. arrhizus: 45.0 mm
Rhizopus arrhizus; 50ml L-^1 and higher doses, further experiments, data not shown
  duration of complete inhibition of growth: at least 8 days
Rhizopus arrhizus; 50ml L-^1 level
  inhibition of growth: complete inhibition of growth
Rhizopus arrhizus; 50 ml L^-1, Day 1
  Level of Radial Growth (mm) of R. arrhizus: 0 mm
Rhizopus arrhizus; 50 ml L^-1, Day 2
  Level of Radial Growth (mm) of R. arrhizus: 0 mm
Rhizopus arrhizus; 50 ml L^-1, Day 3
  Level of Radial Growth (mm) of R. arrhizus: 0 mm
Rhizopus arrhizus; 50 ml L^-1, Day 4
  Level of Radial Growth (mm) of R. arrhizus: 0 mm
Rhizopus arrhizus; 50 ml L^-1, Day 5
  Level of Radial Growth (mm) of R. arrhizus: 0 mm
Rhizopus arrhizus; 50 ml L^-1, Day 6
  Level of Radial Growth (mm) of R. arrhizus: 0 mm
Rhizopus arrhizus; 200µl L^-1, Day 1
  Level of Radial Growth (mm) of R. arrhizus: 18.0 mm
Rhizopus arrhizus; 200µl L^-1, Day 2
  Level of Radial Growth (mm) of R. arrhizus: 45.0 mm
Rhizopus arrhizus; 200µl L^-1, Day 3
  Level of Radial Growth (mm) of R. arrhizus: 45.0 mm
Rhizopus arrhizus; 200µl L^-1, Day 4
  Level of Radial Growth (mm) of R. arrhizus: 45.0 mm
Rhizopus arrhizus; 200µl L^-1, Day 5
  Level of Radial Growth (mm) of R. arrhizus: 45.0 mm
Rhizopus arrhizus; 200µl L^-1, Day 6
  Level of Radial Growth (mm) of R. arrhizus: 45.0 mm
Rhizopus arrhizus; 400µl L^-1, Day 1
  Level of Radial Growth (mm) of R. arrhizus: 14.5 mm
Rhizopus arrhizus; 400µl L^-1, Day 2
  Level of Radial Growth (mm) of R. arrhizus: 45.0 mm
Rhizopus arrhizus; 400µl L^-1, Day 3
  Level of Radial Growth (mm) of R. arrhizus: 45.0 mm
Rhizopus arrhizus; 400µl L^-1, Day 4
  Level of Radial Growth (mm) of R. arrhizus: 45.0 mm
Rhizopus arrhizus; 400µl L^-1, Day 5
  Level of Radial Growth (mm) of R. arrhizus: 45.0 mm
Rhizopus arrhizus; 400µl L^-1, Day 6
  Level of Radial Growth (mm) of R. arrhizus: 45.0 mm
Aspergillus nidulans [2]
  duration of complete inhibition of growth: at least 8 days
Mouse
  LDSO: 4000 mg/kg
